Data published in publication PMC10053857, “Analysis of NSAIDs in Rat Plasma Using 3D-Printed Sorbents by LC-MS/MS: An Approach to Pre-Clinical Pharmacokinetic Studies” (Pharmaceutics, 2023).
One block for each compound: values may come before it.

How the values were obtained:
[1] = in vivo; parameters: species or system male Sprague-Dawley rats; details: male, Sprague-Dawley, rat, po
Procedure: A 3D sorbent was used as the extraction device to evaluate the in vivo pharmacokinetics of acetaminophen and indomethacin. The Institutional Animal Ethics Committee of the National Institute of Pharmaceutical Education and Research, Guwahati (NIPER/CAF/IAEC/2022/60) approved all the animal experiments. For the pharmacokinetic study, the animal house was kept at a temperature of 25 ± 1 °C with a relative humidity of 50 ± 15%. The rats were maintained on a 12-h dark/light cycle and had free access to food and water. Prior to the study, the animals fasted for 12 h. To minimize variations in drug concentration in the plasma, 18 male Sprague-Dawley rats of similar weight and age were used. Rats were administered 50 mg/kg acetaminophen and 10 mg/kg indomethacin in saline through oral gavage to a different group. Blood samples were collected and thoroughly vortexed at 0.25, 0.50, 1, 2, 4, 6, and 8 h before being centrifuged at 5000 rpm for 20 min at 4 °C. The resulting plasma samples were separated and subjected to analysis using LC-MS/MS. The 3D extraction prototype was used to extract analytes from the plasma by introducing 90 µL of plasma spiked with 10 µL of an internal standard (I.S., 50 ng/mL), making up to 1 mL with deionized water, and adding the 3D extraction device for the adsorption process. After 15 min of adsorption in the vortexes, the remaining residue was collected for further analysis, the prototype was transferred into a fresh microcentrifuge tube, and desorption solvents (water and acetonitrile) were added in a 1:1 (v/v) ratio and vortexed for 15 min. Samples were collected after successful desorption and analyzed using LC-MS/MS.
Male Sprague-Dawley rats (n = 6) were used for pharmacokinetic studies, and oral doses of indomethacin and acetaminophen were separately administered to overnight-fasted rats. Blood was collected through retro-orbital puncture at different time points, and plasma was separated and stored for further analysis. Plasma containing indomethacin and acetaminophen was added to the microcentrifuge tube containing the activated extraction device for adsorption and vortexed for 15 min with 1 mL of water, after which the analytes present in the plasma were bound to the surface of the cartridge. After adsorption for 15 min, the remaining solvent was transferred into a fresh tube and centrifuged to precipitate the matrix. The resulting supernatant was collected and introduced into an LC-MS/MS system to quantify the unbound concentration. The sorbent was transferred into a fresh microcentrifuge tube for desorption using acetonitrile and water and vortexed for 15 min to complete the process. The solution was collected, followed by centrifugation, and the supernatant was filtered through a 0.2µm filter. The resulting filtrate was then subjected to LC-MS/MS analysis to measure the indomethacin and acetaminophen concentration in the plasma.
An investigation into the pharmacokinetics of indomethacin and acetaminophen in rats was conducted through oral administration, employing LC-ESI-MS/MS analysis. Figure 9 illustrates the resulting pharmacokinetic profile, while Table 4 presents the computed pharmacokinetic parameters of both substances, obtained via PK Analysis Add-ins in the Microsoft Excel Program. […] The mean area under the curve (AUC0–t) for indomethacin is 0.93 µg h/mL and for acetaminophen is 32.33 µg h/mL. […] Based on the obtained results, the developed 3D-printed sorbent efficiently extracted analytes from plasma, reduced sample preparation time, and minimized the use of organic solvents during sample preparation.

[2] = Stability of analytes in rat plasma (bench-top, autosampler/post-operative, freeze-thaw); assay type: in vitro ADME; details: for Mean Estimated Concentration ± SD, autosampler stability: 15 °C for 24 h; for Mean Estimated Concentration ± SD, bench-top stability: 8 h at ambient temperature; for Mean Estimated Concentration ± SD, three freeze-thaw cycles: each cycle at −20 °C; for mean percentage changes in plasma during bench-top stability, post-operative, and three freeze-thaw cycles: low and high QC
Procedure: To assess the specificity and selectivity of the validated LC-MS/MS method and to determine the exclusion of endogenous interferences at the retention time of the compound and I.S., a total of six plasma samples and two plasma samples containing 50 ng/mL I.S. solution were subjected to extraction using the 3D sorbent. A calibration curve for rat plasma was constructed for standards over a range of 1–800 ng/mL for acetaminophen and 1–500 ng/mL for indomethacin. The peak area ratio of the drug and I.S. was plotted with a weighing factor of 1/X to assess acetaminophen linearity and linear regression for indomethacin. The minimum detectable concentration of analytes, also known as the lower limit of quantification (LLOQ), was established as the concentration at which the coefficient of variation (CV) is less than 20%, and the accuracy is within the range of 80–120%. Four different concentrations of quality control samples were used for six replicates to determine the intra- and inter-day precision and accuracy. As per the FDA guidelines, CV was limited to <20% for the LLOQ and ≤15% for the LQC, MQC, and HQC. Accuracy was calculated as the percentage difference between the observed and nominal concentrations of the QC samples. A comparison of the peak area ratios of analytes to I.S. of extracted samples (n = 6) and drug solutions of the same concentration was performed to evaluate the extraction recovery of molecules from rat plasma. LQC, MQC, and HQC concentrations were investigated for extraction recovery. The matrix effect of the LQC, MQC, and HQC samples was determined by deproteinizing the blank plasma samples and adding analytes and I.S. to the deproteinized sample. Furthermore, the same analyte concentrations were analyzed in aqueous solutions. The matrix factor was calculated using the following equation: (peak area of post-extracted standard analytes/peak area of the analyte in aqueous solution) × 100. To test the dilution integrity, the range of the standard compound concentrations was increased beyond the calibration range. Plasma samples with 1200 ng/mL of acetaminophen and indomethacin were individually prepared and then diluted two-fold and four-fold using blank plasma. The dilution integrity of concentrations was evaluated with %CV <15%. A series of injections was performed to assess the carry-over effect of acetaminophen and indomethacin. The injections included a blank solvent sample, a higher concentration standard sample, a blank plasma sample extracted with the 3D sorbent, and a higher concentration sample extracted with 3D sorbent from plasma. The thresholds for carry-over effects were 20% of the mean extracted LLOQ signal and 5% of the I.S. response. The stability of acetaminophen and indomethacin in rat plasma was evaluated at six low- and high-quality control sample replicates. Benchtop and post-operative stability studies were conducted at 8 h at ambient temperature and 15 °C for 24 h, respectively. Quality control samples were stored at −20 °C and thawed at room temperature every 24 h for freeze-thaw stability, and after three freeze-thaw cycles, samples were analyzed.

[3] = acetaminophen, HQC, theoretical 600 ng/mL
[4] = acetaminophen, LQC, theoretical 3 ng/mL
[5] = indomethacin, HQC, theoretical 400 ng/mL
[6] = indomethacin, LQC, theoretical 3 ng/mL

AUC ([1]; 50 mg/kg): 32400 ± 10800 ng·h/mL
AUC(0-t) ([1]; 50 mg/kg): 32300 ± 10800 ng·h/mL
Cmax ([1]; 50 mg/kg): 27300 ± 9900 ng/mL
Tmax ([1]; 50 mg/kg): 30 to 60 min
half-life ([1]; 50 mg/kg): 48.6 ± 6 min
k el ([1]; 50 mg/kg): 0.000236 s⁻¹
Mean Estimated Concentration ± SD, autosampler stability [2, 3]: 596.26 ± 8.41 ng/mL
Mean Estimated Concentration ± SD, bench-top stability [2, 3]: 592.92 ± 10.80 ng/mL
Mean Estimated Concentration ± SD, three freeze-thaw cycles [2, 3]: 591.92 ± 6.66 ng/mL
Mean Estimated Concentration ± SD, autosampler stability [2, 4]: 2.92 ± 0.15 ng/mL
Mean Estimated Concentration ± SD, bench-top stability [2, 4]: 2.91 ± 0.16 ng/mL
Mean Estimated Concentration ± SD, three freeze-thaw cycles [2, 4]: 3.01 ± 0.09 ng/mL
mean percentage changes in plasma during bench-top stability, post-operative, and three freeze-thaw cycles [2]: within acceptable limits
Structure (SMILES): CC(=O)Nc1ccc(O)cc1 [Acetaminophen]

AUC ([1]; 10 mg/kg): 970 ± 200 ng·h/mL
AUC(0-t) ([1]; 10 mg/kg): 930 ± 170 ng·h/mL
Cmax ([1]; 10 mg/kg): 330 ± 40 ng/mL
Tmax ([1]; 10 mg/kg): 30 to 60 min
half-life ([1]; 10 mg/kg): 107 ± 26.4 min
k el ([1]; 10 mg/kg): 0.000114 s⁻¹
Mean Estimated Concentration ± SD, autosampler stability [2, 5]: 391.82 ± 6.72 ng/mL
Mean Estimated Concentration ± SD, bench-top stability [2, 5]: 401.61 ± 7.80 ng/mL
Mean Estimated Concentration ± SD, three freeze-thaw cycles [2, 5]: 395.72 ± 13.06 ng/mL
Mean Estimated Concentration ± SD, autosampler stability [2, 6]: 2.99 ± 0.04 ng/mL
Mean Estimated Concentration ± SD, bench-top stability [2, 6]: 2.98 ± 0.11 ng/mL
Mean Estimated Concentration ± SD, three freeze-thaw cycles [2, 6]: 2.96 ± 0.12 ng/mL
mean percentage changes in plasma during bench-top stability, post-operative, and three freeze-thaw cycles [2]: within acceptable limits
Structure (SMILES): COc1ccc2c(c1)c(CC(=O)O)c(C)n2C(=O)c1ccc(Cl)cc1 [Indomethacin]
